Values after ≈ are worked out from the molar mass of the structure shown.
Key:
[1] = In vivo toxicity in murine model: mice alive / distress-free; conditions: 45 mg/kg IV, 24 h
[2] = tested on: Af F7075, azole resistant (G54E); test: MIC against azole and echinocandin resistant fungal strains (CLSI); assay type: cell-based; conditions: read-out: MIC Af F7075
Procedure: (§1) This experiment was performed following the standard CLSI protocol.

[3] = tested on: Af F16134, azole resistant (M220K); test: as above; assay type: cell-based; conditions: read-out: MIC Af F16134
Procedure: as §1

[4] = tested on: EMFR-S678P, echinocandin resistant; test: as above; assay type: cell-based; conditions: read-out: MIC EMFR-S678P
Procedure: as §1

Af 3626 (ATCC strain) = test: as above; assay type: cell-based; conditions: read-out: MIC Af 3626
Procedure: as §1

[5] = tested on: Af F16216, azole resistant (L98H + TR); test: as above; assay type: cell-based; conditions: read-out: MIC Af F16216
Procedure: as §1

[6] = In vivo tolerance in mice: survival and distress; conditions: tail vein, 24 h
CEA10 (clinical isolate) = test: MIC against azole and echinocandin resistant fungal strains (CLSI); assay type: cell-based, A. funigatus; conditions: read-out: MIC CEA10
Procedure: as §1

[7] = tested on: Af F12776, azole resistant (Y431C); test: as above; assay type: cell-based; conditions: read-out: MIC Af F12776
Procedure: as §1

[8] = tested on: Af F14946, azole resistant (G138C); test: as above; assay type: cell-based; conditions: read-out: MIC Af F14946
Procedure: as §1

C[C@@H]1[C@H](O)[C@@H](C)/C=C/C=C/C=C/C=C/C=C/C=C/C=C/[C@H](O[C@@H]2O[C@H](C)[C@@H](O)[C@H](N)[C@H]2O)C[C@@H]2O[C@](O)(C[C@@H](O)C[C@@H](O)[C@H](O)CC[C@@H](O)C[C@@H](O)CC(=O)O[C@H]1C)C[C@H](O)[C@H]2C(=O)O [C2′epiAmB]
# of mice alive [1]: 4/4 | # of mice distress-free [1]: 4/4

CC[C@H](C)C[C@H](C)CCCCCCCCC(=O)N[C@H]1C[C@@H](O)[C@@H](NCCN)NC(=O)[C@@H]2[C@@H](O)CCN2C(=O)[C@H]([C@H](O)CCN)NC(=O)[C@H]([C@H](O)[C@@H](O)c2ccc(O)cc2)NC(=O)[C@@H]2C[C@@H](O)CN2C(=O)[C@H]([C@@H](C)O)NC1=O [Caspofungin]
MIC [2]: 0.82 µM (≈ 0.897 µg/mL) | MIC [3]: 0.21 µM (≈ 0.23 µg/mL) | MIC [4]: > 3.3 µM | MIC (Af 3626 (ATCC strain)): 0.41 µM (≈ 0.448 µg/mL) | MIC [5]: 0.41 µM (≈ 0.448 µg/mL)

C[C@H](CCC(=O)O)[C@H]1CC[C@H]2[C@@H]3CC[C@@H]4C[C@H](O)CC[C@]4(C)[C@H]3C[C@H](O)[C@]12C [Deoxycholate]
Distressed ([6]; Dose 1 mg/kg): 0/4 | Survival (alive/total) ([6]; Dose 1 mg/kg): 4/4 | Distressed ([6]; Dose 4 mg/kg): 0/4 | Survival (alive/total) ([6]; Dose 4 mg/kg): 4/4 | Distressed ([6]; Dose 45 mg/kg): 0/4 | Survival (alive/total) ([6]; Dose 45 mg/kg): 4/4

CC[C@@H]([C@H](C)O)n1ncn(-c2ccc(N3CCN(c4ccc(OC[C@@H]5CO[C@@](Cn6cncn6)(c6ccc(F)cc6F)C5)cc4)CC3)cc2)c1=O [Posaconazole]
MIC (CEA10 (clinical isolate)): 0.18 µM (≈ 0.126 µg/mL) | MIC [5]: 1.43 µM (≈ 1 µg/mL)

C[C@@H](c1ncncc1F)[C@](O)(Cn1cncn1)c1ccc(F)cc1F [Voriconazole]
MIC [2]: 5.73 µM (≈ 2 µg/mL) | MIC [3]: > 11.5 µM | MIC [7]: > 11.5 µM | MIC (Af 3626 (ATCC strain)): 0.72 µM (≈ 0.252 µg/mL) | MIC [5]: > 11.5 µM | MIC [8]: > 11.5 µM
